# Reference: US20240384350A1, “METHODS OF TREATING CANCER WITH KINASE INHIBITORS” (BOARD OF REGENTS, THE UNIVERSITY OF TEXAS SYSTEM, priority 2021, published 2024)
# Tests used:
# [1] = tested on: NSCLC harboring atypical EGFR mutations; details: Phase II KCSG-LU15-09; treatment-naive patients harboring atypical EGFR mutations; cited from earlier work
# [2] = tested on: classical EGFR mutant NSCLC; details: Phase III; treatment-naive patients; cited from earlier work
# [3] = tested on: NSCLC tumors expressing EGFR G719S; assay: PDX tumor growth, EGFR G719S model; format: in vivo, NSG mice; details: mice harboring PDXs with mutations
# Protocol: Dot plot of mutant/WT IC50 values of Ba/F3 cells expressing PACC mutations and treated with indicated classes of EGFR TKIs. […] Bars are representative of average mutant/WT IC50 values±SEM for each class of EGFR TKI and all PACC cell lines. p-values were determined by ANOVA analysis with unequal SD as determined by Brown-Forsythe test to determined differences in SD. Holm-Sidak's multiple comparisons test was used to determine differences between groups. […] Tumors were measured three times per week and symbols are average of tumor volumes±SEM. Mice were randomized into six groups. Mice received drug 5 days per week, and mice were euthanized at day 28 to harvest tumors. […] Heat map with unsupervised hierarchical clustering of log (Mutant/WT) ratios from Ba/F3 cells expressing indicated mutations after 72 hours of indicated drug treatment. Squares are representative of the average of n=3 replicates. […] Bars are representative of average mutant/WT IC50 values±SEM for each class of EGFR TKI and indicated cell lines. p-values were determined by ANOVA analysis with unequal SD as determined by Brown-Forsythe test to determined differences in SD. […]
# Dot plot of percent change in tumor volume on day 28 of tumors described in FIG. 3C. […] Statistical differences were determined by ordinary one-way ANOVA with post-hoc Tukey's multiple comparisons test to determined differences between groups. […]
structure (smiles),measurement,setting,value
C=CC(=O)Nc1cc(Nc2nccc(-c3cn(C)c4ccccc34)n2)c(OC)cc1N(C)CCN(C)C [Osimertinib],ORR,[1],50%
same,mPFS,[1],8.2 months
same,median overall survival (mOS),[2],38.6 months
same,median progression free survival (mPFS),[2],18.9 months
same,objective response rate (ORR),[2],80%
same,tumor sensitivity in vivo,[3],resistant
